Measured values taken from ChEMBL document CHEMBL4800729 (2021).

What was measured:
[1] = target: GABA-A receptor; anion channel (Rattus norvegicus) (UniProt O09028+P15431+P18506+P18508+P19969+P20236+P23574+P23576+P28471+P28473+P30191+P62813+P63079+P63138+Q91ZM7+Q9ES14); details: Compound concentration 10.0 uM
[2] = target: Glutamate receptor ionotropic, kainate (Rattus norvegicus) (UniProt P22756+Q01812+P42260+P42264+Q63273); details: Compound concentration 10.0 uM
[3] = target: Phosphatidylinositol 4,5-bisphosphate 3-kinase catalytic subunit gamma isoform (Homo sapiens) (UniProt P48736); assay: PI3 Kinase (p120g)(h) Millipore kinase panel; details: Compound concentration 1.0 uM
Phosphatidylinositol 4,5-bisphosphate 3-kinase catalytic subunit gamma isoform (Homo sapiens), sequence (P48736 whole entry, looked up, canonical isoform): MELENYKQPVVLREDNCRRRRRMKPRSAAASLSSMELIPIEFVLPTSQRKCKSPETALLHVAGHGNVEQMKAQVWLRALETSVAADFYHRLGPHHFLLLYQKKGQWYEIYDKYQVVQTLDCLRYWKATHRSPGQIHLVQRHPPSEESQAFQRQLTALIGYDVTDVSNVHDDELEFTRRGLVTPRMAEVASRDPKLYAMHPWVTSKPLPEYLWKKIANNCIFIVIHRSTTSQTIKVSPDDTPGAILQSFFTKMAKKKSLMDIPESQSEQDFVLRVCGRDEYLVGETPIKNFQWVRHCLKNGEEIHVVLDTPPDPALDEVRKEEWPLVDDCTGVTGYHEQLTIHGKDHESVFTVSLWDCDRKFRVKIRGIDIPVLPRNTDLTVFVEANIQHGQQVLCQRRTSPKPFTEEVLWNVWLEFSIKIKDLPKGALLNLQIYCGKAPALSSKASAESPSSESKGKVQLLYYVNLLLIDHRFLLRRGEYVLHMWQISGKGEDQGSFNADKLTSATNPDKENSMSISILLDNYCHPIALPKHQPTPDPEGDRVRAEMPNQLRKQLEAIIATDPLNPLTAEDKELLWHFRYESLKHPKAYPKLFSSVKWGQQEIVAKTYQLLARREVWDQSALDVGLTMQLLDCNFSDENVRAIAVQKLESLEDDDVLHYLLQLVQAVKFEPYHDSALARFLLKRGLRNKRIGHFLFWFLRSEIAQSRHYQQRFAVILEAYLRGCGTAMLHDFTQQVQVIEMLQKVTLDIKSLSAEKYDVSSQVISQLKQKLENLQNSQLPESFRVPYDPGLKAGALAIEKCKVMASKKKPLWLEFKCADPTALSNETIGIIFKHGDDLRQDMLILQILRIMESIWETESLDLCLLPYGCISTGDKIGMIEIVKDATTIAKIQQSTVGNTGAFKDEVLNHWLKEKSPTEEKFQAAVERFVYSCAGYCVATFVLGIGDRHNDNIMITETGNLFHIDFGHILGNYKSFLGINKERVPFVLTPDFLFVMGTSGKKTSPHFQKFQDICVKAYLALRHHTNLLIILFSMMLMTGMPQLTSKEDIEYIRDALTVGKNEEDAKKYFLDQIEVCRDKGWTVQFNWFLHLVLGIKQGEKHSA

[4] = target: Tyrosine-protein kinase JAK1 (Homo sapiens) (UniProt P23458); assay: JAK1(h) Millipore kinase panel; details: Compound concentration 1.0 uM
[5] = target: Serine/threonine-protein kinase pim-1 (Homo sapiens) (UniProt P11309); assay: Pim-1(h) Millipore kinase panel; details: Compound concentration 1.0 uM
[6] = target: Delta-type opioid receptor (Homo sapiens) (UniProt P41143); details: Compound concentration 10.0 uM
[7] = target: AP2-associated protein kinase 1 (Homo sapiens) (UniProt Q2M2I8); assay: AAK1(h) Millipore kinase panel; details: Compound concentration 1.0 uM
[8] = target: MAP kinase-interacting serine/threonine-protein kinase 2 (Homo sapiens) (UniProt Q9HBH9); assay: Mnk2(h) Millipore kinase panel; details: Compound concentration 1.0 uM
[9] = target: Serine/threonine-protein kinase 32B (Homo sapiens) (UniProt Q9NY57); assay: STK32B(h) Millipore kinase panel; details: Compound concentration 1.0 uM
[10] = target: Homeodomain-interacting protein kinase 2 (Homo sapiens) (UniProt Q9H2X6); assay: HIPK2(h) Millipore kinase panel; details: Compound concentration 1.0 uM
[11] = target: Mitogen-activated protein kinase kinase kinase 3 (Homo sapiens) (UniProt Q99759); assay: MEKK3(h) Millipore kinase panel; details: Compound concentration 1.0 uM
[12] = target: Serine/threonine-protein kinase LATS1 (Homo sapiens) (UniProt O95835); assay: LATS1(h) Millipore kinase panel; details: Compound concentration 1.0 uM
[13] = target: 5-hydroxytryptamine receptor 1D (Homo sapiens) (UniProt P28221); details: Compound concentration 10.0 uM
5-hydroxytryptamine receptor 1D (Homo sapiens), sequence (P28221 whole entry): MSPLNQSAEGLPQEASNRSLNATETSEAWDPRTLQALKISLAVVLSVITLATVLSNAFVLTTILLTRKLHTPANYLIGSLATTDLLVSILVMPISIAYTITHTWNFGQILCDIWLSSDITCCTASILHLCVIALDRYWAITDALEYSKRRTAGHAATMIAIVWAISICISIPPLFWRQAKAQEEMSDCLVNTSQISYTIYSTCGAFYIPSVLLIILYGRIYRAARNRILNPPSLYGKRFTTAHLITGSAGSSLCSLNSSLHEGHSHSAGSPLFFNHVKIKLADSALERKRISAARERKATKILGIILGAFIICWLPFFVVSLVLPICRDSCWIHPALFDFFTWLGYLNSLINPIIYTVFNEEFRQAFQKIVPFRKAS

[14] = target: NUAK family SNF1-like kinase 1 (Homo sapiens) (UniProt O60285); assay: ARK5(h) Millipore kinase panel; details: Compound concentration 1.0 uM
NUAK family SNF1-like kinase 1 (Homo sapiens), sequence (O60285 whole entry): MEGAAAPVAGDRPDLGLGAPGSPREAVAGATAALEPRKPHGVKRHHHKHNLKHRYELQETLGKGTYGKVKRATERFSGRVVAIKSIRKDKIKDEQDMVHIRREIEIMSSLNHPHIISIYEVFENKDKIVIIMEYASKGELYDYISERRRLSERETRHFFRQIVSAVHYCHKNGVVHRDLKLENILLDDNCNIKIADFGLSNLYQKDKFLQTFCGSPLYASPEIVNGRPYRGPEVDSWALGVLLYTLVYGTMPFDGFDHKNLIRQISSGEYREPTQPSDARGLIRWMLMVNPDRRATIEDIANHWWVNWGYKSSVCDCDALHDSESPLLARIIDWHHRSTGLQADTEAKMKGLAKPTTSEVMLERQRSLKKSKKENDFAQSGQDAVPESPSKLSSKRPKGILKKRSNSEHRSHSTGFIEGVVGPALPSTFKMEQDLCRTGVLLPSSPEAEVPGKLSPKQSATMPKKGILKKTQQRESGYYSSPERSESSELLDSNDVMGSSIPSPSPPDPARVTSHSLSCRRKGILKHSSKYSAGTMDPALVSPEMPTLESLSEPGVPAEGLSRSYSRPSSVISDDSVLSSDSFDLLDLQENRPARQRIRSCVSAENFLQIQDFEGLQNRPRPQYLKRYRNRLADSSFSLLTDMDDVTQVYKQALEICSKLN

[15] = target: Eukaryotic translation initiation factor 2-alpha kinase 1 (Homo sapiens) (UniProt Q9BQI3); assay: HRI(h) Millipore kinase panel; details: Compound concentration 1.0 uM
[16] = target: mTOR/FKBP12A/FKBP12B (Homo sapiens) (UniProt P62942+P68106+P42345); assay: mTOR FKBP12(h) Millipore kinase panel; format: protein-complex assay; details: Compound concentration 1.0 uM
mTOR/FKBP12A/FKBP12B (Homo sapiens), sequence (P62942 2-108 limits assumed, other chains not shown): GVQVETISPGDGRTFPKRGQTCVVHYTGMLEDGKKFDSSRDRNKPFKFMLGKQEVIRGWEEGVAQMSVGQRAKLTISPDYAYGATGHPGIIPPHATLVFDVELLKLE
mTOR/FKBP12A/FKBP12B (Homo sapiens), sequence (P68106 whole entry partner, other chains not shown): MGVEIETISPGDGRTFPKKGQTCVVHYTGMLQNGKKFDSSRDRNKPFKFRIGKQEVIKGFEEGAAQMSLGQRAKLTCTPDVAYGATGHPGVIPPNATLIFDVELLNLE

[17] = target: Proto-oncogene tyrosine-protein kinase Src (Homo sapiens) (UniProt P12931); assay: cSRC(h) Millipore kinase panel; details: Compound concentration 1.0 uM
[18] = target: Serine/threonine-protein kinase Sgk3 (Homo sapiens) (UniProt Q96BR1); assay: SGK3(h) Millipore kinase panel; details: Compound concentration 1.0 uM
[19] = target: Serine/threonine-protein kinase 32A (Homo sapiens) (UniProt Q8WU08); assay: STK32A(h) Millipore kinase panel; details: Compound concentration 1.0 uM
Serine/threonine-protein kinase 32A (Homo sapiens), sequence (Q8WU08 whole entry): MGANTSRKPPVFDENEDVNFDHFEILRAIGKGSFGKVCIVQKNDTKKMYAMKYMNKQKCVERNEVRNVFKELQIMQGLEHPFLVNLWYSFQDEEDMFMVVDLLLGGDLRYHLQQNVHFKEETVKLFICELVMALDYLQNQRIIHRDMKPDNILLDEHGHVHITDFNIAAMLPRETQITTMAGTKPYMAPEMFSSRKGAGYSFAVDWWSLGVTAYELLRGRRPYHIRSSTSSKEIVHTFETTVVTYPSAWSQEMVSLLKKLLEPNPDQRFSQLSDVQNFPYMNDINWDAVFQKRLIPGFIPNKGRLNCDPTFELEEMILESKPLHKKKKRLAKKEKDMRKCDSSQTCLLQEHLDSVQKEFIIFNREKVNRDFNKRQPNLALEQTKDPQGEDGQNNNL

[20] = target: Ribosomal protein S6 kinase alpha-4 (Homo sapiens) (UniProt O75676); assay: MSK2(h) Millipore kinase panel; details: Compound concentration 1.0 uM
[21] = target: MAP kinase-activated protein kinase 3 (Homo sapiens) (UniProt Q16644); assay: MAPKAP-K3(h) Millipore kinase panel; details: Compound concentration 1.0 uM
[22] = target: G protein-coupled receptor kinase 5 (Homo sapiens) (UniProt P34947); assay: GRK5(h) Millipore kinase panel; details: Compound concentration 1.0 uM
[23] = target: Tyrosine-protein kinase SYK (Homo sapiens) (UniProt P43405); assay: Syk(h) Millipore kinase panel; details: Compound concentration 1.0 uM
[24] = target: Tyrosine-protein kinase TXK (Homo sapiens) (UniProt P42681); assay: Txk(h) Millipore kinase panel; details: Compound concentration 1.0 uM
Tyrosine-protein kinase TXK (Homo sapiens), sequence (P42681 whole entry): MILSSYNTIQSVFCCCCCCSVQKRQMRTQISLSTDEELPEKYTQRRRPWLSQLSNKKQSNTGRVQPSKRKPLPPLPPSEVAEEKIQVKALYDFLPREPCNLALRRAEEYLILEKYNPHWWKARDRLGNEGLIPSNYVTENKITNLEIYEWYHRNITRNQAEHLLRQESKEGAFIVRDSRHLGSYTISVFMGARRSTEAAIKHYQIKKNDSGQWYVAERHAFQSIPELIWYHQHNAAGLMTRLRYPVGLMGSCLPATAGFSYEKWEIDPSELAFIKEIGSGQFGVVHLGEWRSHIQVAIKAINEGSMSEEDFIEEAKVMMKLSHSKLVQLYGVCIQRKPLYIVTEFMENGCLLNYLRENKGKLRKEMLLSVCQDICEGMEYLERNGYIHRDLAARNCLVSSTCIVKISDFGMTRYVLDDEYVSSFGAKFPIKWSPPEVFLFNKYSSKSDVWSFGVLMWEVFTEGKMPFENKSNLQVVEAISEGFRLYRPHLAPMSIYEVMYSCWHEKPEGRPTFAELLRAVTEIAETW

[25] = target: Serine/threonine-protein kinase NLK (Homo sapiens) (UniProt Q9UBE8); assay: NLK(h) Millipore kinase panel; details: Compound concentration 1.0 uM
[26] = target: G protein-coupled receptor kinase 3 (Homo sapiens) (UniProt P35626); assay: GRK3(h) Millipore kinase panel; details: Compound concentration 1.0 uM
[27] = target: Serine/threonine-protein kinase BRSK2 (Homo sapiens) (UniProt Q8IWQ3); assay: BrSK2(h) Millipore kinase panel; details: Compound concentration 1.0 uM
[28] = target: Serine/threonine-protein kinase LATS2 (Homo sapiens) (UniProt Q9NRM7); assay: LATS2(h) Millipore kinase panel; details: Compound concentration 1.0 uM
[29] = target: Tyrosine-protein kinase Lyn (Homo sapiens) (UniProt P07948); assay: Lyn(h) Millipore kinase panel; details: Compound concentration 1.0 uM
[30] = target: D(3) dopamine receptor (Homo sapiens) (UniProt P35462); details: Compound concentration 10.0 uM
[31] = target: Serine/threonine-protein kinase Nek1 (Homo sapiens) (UniProt Q96PY6); assay: NEK1(h) Millipore kinase panel; details: Compound concentration 1.0 uM
[32] = target: Ribosomal protein S6 kinase alpha-2 (Homo sapiens) (UniProt Q15349); assay: Rsk3(h) Millipore kinase panel; details: Compound concentration 1.0 uM
[33] = target: Calcium/calmodulin-dependent protein kinase kinase 2 (Homo sapiens) (UniProt Q96RR4); assay: CaMKK2(h) Millipore kinase panel; details: Compound concentration 1.0 uM
[34] = target: Alpha-1A adrenergic receptor (Homo sapiens) (UniProt P35348); assay: Inhibition of Adrenergic alpha1A at compound concentration of 10.0 uM in the Eurofins-Panlabs radioligand binding assay (Eurofins_assay_203110); design: ligand concentration 0.25 nM; details: Rattus norvegicus; Compound concentration 10.0 uM
[35] = target: T1, Muscarinic acetylcholine receptor M1 (Homo sapiens) (UniProt P11229); details: Compound concentration 10.0 uM
T1 sequence (whole entry): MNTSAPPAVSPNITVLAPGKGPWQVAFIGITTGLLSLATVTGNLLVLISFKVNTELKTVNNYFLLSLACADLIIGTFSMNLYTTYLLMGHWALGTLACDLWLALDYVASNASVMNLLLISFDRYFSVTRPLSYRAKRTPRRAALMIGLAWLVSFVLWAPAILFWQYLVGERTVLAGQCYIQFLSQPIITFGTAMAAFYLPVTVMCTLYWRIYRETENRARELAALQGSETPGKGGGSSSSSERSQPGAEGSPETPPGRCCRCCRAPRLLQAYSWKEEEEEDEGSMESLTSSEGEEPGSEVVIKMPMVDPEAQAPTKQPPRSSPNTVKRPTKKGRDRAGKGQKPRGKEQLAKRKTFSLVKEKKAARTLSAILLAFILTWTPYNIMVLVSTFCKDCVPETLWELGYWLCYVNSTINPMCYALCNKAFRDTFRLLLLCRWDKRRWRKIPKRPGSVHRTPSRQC

[36] = target: Mitogen-activated protein kinase kinase kinase kinase 5 (Homo sapiens) (UniProt Q9Y4K4); assay: MAP4K5(h) Millipore kinase panel; details: Compound concentration 1.0 uM
Mitogen-activated protein kinase kinase kinase kinase 5 (Homo sapiens), sequence (Q9Y4K4 whole entry, looked up): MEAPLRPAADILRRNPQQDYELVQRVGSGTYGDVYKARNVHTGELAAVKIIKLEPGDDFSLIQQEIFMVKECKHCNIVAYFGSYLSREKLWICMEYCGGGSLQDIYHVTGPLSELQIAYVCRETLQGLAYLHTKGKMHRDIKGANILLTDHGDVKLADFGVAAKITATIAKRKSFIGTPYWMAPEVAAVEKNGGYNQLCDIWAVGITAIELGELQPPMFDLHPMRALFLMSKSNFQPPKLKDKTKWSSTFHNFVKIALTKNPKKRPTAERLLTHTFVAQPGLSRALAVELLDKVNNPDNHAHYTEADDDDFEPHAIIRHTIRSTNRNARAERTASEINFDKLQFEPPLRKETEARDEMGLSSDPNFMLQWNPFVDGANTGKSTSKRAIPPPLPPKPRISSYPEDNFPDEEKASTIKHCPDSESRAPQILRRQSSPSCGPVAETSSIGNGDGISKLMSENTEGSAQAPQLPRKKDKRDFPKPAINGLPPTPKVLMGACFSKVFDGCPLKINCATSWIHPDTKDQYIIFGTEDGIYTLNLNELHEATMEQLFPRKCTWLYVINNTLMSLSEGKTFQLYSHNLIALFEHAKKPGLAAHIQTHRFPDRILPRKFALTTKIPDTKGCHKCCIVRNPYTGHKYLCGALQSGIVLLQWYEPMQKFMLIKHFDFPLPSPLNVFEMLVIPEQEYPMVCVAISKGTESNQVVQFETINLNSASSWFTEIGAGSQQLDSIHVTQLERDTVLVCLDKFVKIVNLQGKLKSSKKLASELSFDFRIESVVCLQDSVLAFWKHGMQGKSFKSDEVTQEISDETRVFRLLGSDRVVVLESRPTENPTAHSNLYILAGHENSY

[37] = target: High affinity nerve growth factor receptor (Homo sapiens) (UniProt P04629); assay: TrkA(h) Millipore kinase panel; details: Compound concentration 1.0 uM
High affinity nerve growth factor receptor (Homo sapiens), sequence (P04629 33-796 limits assumed): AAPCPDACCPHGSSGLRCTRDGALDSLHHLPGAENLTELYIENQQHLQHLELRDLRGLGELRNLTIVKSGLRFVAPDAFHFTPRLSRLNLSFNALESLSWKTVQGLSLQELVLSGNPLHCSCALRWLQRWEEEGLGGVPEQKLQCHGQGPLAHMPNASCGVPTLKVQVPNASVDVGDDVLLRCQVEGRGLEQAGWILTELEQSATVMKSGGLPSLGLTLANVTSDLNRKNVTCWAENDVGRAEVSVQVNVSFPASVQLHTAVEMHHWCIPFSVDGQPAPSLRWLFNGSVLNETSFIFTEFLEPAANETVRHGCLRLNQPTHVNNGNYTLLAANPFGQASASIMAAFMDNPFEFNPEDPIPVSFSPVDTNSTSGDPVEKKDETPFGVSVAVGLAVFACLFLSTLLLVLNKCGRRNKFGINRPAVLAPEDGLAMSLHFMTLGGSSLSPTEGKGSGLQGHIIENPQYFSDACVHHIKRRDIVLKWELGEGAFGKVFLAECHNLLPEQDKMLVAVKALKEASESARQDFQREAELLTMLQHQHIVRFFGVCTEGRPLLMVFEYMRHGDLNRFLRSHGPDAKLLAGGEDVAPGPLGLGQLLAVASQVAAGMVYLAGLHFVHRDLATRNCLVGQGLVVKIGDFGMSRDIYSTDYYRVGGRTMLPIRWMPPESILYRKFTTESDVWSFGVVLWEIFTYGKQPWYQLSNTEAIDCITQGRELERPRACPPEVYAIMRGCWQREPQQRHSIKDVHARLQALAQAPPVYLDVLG

[38] = target: Type-1 angiotensin II receptor (Homo sapiens) (UniProt P30556); details: Compound concentration 10.0 uM
[39] = target: Mitogen-activated protein kinase 8 (Homo sapiens) (UniProt P45983); assay: JNK1alpha1(h) Millipore kinase panel; details: Compound concentration 1.0 uM

Measured: inhibition

CC[C@@H](Nc1c(C#N)c(-c2ccc(-c3cccc(C)c3F)cc2)nc2cnccc12)C(=O)O [BAY-091]
inactive: [1] 3% | [2] -2% | [3] 14.4% | [4] -0.44% | [5] -2.53% | [6] 25% | [7] 7.44% | [8] 3.39% | [9] 14.9% | [10] 0.19% | [11] -3.58% | [12] 8.31% | [13] 21.2% | [14] 4.55% | [15] -6.26% | [16] 1.38% | [17] 7.51% | [18] 6.09% | [19] 16% | [20] -3.96% | [21] 5.32% | [22] -3.49% | [23] 10.4% | [24] -2.9% | [25] 8.59% | [26] 8.23% | [27] 3.83% | [28] 1.83% | [29] 12.5% | [30] 10.5% | [31] 24.4% | [32] 10.9% | [33] 11.3% | [34] -4% | [35] 13% | [36] 13.3% | [37] 5.32% | [38] 22% | [39] 4.24%
